Columns and labels:
[1] = tested on: GABA receptor-chloride ionophore complex (GR complex); assay: Dissociation kinetics of [35S]TBPS in rat cerebral cortical membranes; type: binding; settings: alphaxalone 300 nM, 3α-OH-DHP 20 nM
[2] = tested on: sedative potential (rotorod); assay: Rotorod test; settings: rotorod ED50 vs (+)bicuculline ED50
Procedure: (§1) Adult male CFI mice (20-30g) were used in these studies. […] Ten to twelve mice were used per dose of test drug. […] Sedative potential was determined by a rotorod test where the number of mice staying on a rotating (6 rpm) rod for ≥1 min. in each of three trials was determined.

[3] = tested on: metrazol-induced convulsions; settings: dissolved in DMSO; Belelli et al., 1989; cited from earlier work
[4] = tested on: (+)bicuculline-induced seizures; settings: dissolved in DMSO; Belelli et al., 1989; cited from earlier work
[5] = tested on: maximal electroshock seizure; settings: dissolved in DMSO; Belelli et al., 1989; cited from earlier work
[6] = tested on: sedative potential (rotorod); settings: dissolved in DMSO; Belelli et al., 1989; cited from earlier work
estrogen receptor = target: T1, estrogen receptor (Bos taurus, UniProt P49884); assay: Inhibition of 3H-estradiol binding to bovine uteral estrogen receptors; settings: read-out: % of inhibition of 3H-estradiol binding, B, competitor 10^-6 M; 0.25 nM 3H-estradiol
T1 construct: from tissue; host or cells: bovine uterus cytosol
T1 sequence (P49884 1-596): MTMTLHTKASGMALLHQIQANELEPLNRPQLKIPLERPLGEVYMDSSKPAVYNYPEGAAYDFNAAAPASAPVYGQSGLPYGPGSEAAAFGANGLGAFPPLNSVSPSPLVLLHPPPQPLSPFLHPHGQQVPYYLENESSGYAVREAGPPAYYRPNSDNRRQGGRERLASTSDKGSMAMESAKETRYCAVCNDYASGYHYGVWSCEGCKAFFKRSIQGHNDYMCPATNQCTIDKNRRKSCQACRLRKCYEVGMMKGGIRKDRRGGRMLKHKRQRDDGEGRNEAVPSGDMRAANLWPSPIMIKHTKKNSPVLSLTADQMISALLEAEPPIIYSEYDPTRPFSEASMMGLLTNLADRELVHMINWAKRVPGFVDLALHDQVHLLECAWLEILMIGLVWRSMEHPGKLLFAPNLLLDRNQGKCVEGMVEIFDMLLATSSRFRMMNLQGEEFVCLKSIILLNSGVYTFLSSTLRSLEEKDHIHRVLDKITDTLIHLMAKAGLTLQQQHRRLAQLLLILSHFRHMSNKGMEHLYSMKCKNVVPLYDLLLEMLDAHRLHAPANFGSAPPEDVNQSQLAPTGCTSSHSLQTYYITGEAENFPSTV
Procedure: The hormonal activity of drugs described herein was further studied through testing their potential estrogenic, progestinic, mineralocorticoid and glucocorticoid activities. These activities were analyzed by monitoring the ability of the drugs to inhibit binding of the steroid hormones to their respective hormone receptors.

Rotorod test = settings: mouse, in vivo, ip
Procedure: as §1

[7] = Na pentobarbital 30 μM, 2 nM [35S]TBPS

Structure (SMILES) | Total percentage of specific sites, rapid (R) ([1]; Na pentobarbital 30 μM) [%] | Total percentage of specific sites, slow (S) ([1]; Na pentobarbital 30 μM) [%] | K-1, slowly dissociating component (S) [1, 7] [min⁻¹] | T1/2, rapidly dissociating component (R) [1, 7] [min] | T1/2, slowly dissociating component (S) [1, 7] [min] | biphasic dissociation mechanism of [35S]TBPS ([1]; pentobarbital 30 μM, FIGS. 2A, 2B) | sedative liability at anticonvulsant doses [2] | ED50 MTZ (metrazol) [3] [mg/kg] | ED50 BIC (bicuculline) [4] [mg/kg] | ED50 MES (maximal electroshock) [5] [mg/kg] | ED50 RR (Rotorod) [6] [mg/kg] | inhibition at 1 µM (estrogen receptor) [%] | TD50 (Rotorod test) [mg/kg]
CC(=O)[C@H]1CC[C@H]2[C@@H]3CC[C@H]4C[C@H](O)CC[C@]4(C)[C@H]3CC[C@]12C [Example 3α-OH-DHP, 3α-hydroxy-5α-pregnan-20-one] | 35 ± 3 | 68 ± 3 | 0.011 ± 0.002 | 6.4 ± 1 | 76 ± 11 | absent | low | 18.8 ± 1.1 | 4.1 ± 1.7 | > 300 | 40 to 100 | – | –
C[C@]12CC[C@@H](O)C[C@@H]1CC[C@@H]1[C@@H]2CC[C@]2(C)[C@@H](C(=O)CO)CC[C@@H]12 [Example 5α-THDOC, 3α,21-dihydroxy-5α-pregnan-20-one] | – | – | – | – | – | – | – | – | – | – | – | 4 | 22.9
